Experimental data from US8741806B2, “Herbicides” (Syngenta Limited, priority 2009, dated 2014).

Columns and labels:
Type in all cases: in vivo
Avena fatua (AVEFA) [1] = test: Example B pre-emergence herbicidal activity, glasshouse pot test; settings: 312 h, rate 250 g/ha, evaluated after 13 days, scale 0-100, read-out: Pre-emergence activity AVEFA (100=total damage to plant; 0=no damage to plant)
How it was run: (§1)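 Pots were sprayed one day after sowing with the active ingredient in acetone/water (50:50) containing 0.5% Tween 20. Plants were kept in a glasshouse at 24/16° C day/night, 14 h light, 65% humidity. Damage was scored 13 days later (0 none to 100 total).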

[2] = test system: Echinochloa crus-galli (ECHCG); test: as above; settings: 312 h, rate 250 g/ha, evaluated after 13 days, scale 0-100, read-out: Pre-emergence activity ECHCG (100=total damage to plant; 0=no damage to plant)
How it was run: as §1

Setaria faberi (SETFA) [3] = test: as above; settings: rate 250 g/ha, evaluated after 13 days, scale 0-100
How it was run: as §1

[4] = test system: Alopecurus myosuroides (ALOMY); test: as above; settings: 312 h, rate 250 g/ha, evaluated after 13 days, scale 0-100, read-out: Pre-emergence activity ALOMY (100=total damage to plant; 0=no damage to plant)
How it was run: as §1

Avena fatua (AVEFA) [5] = test: Example B post-emergence herbicidal activity, glasshouse pot test; settings: 312 h, rate 250 g/ha, evaluated after 13 days, scale 0-100, read-out: Post-emergence activity AVEFA (100=total damage to plant; 0=no damage to plant)
How it was run: (§2)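 Seeds sown in standard soil, grown 8 days in glasshouse (24/16 °C day/night, 14 h light, 65% humidity), then sprayed post-emergence with compound in acetone/water (50:50) containing 0.5% Tween 20. Damage scored visually after 13 days on a 0–100 scale (100 = total damage).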

[6] = test system: Echinochloa crus-galli (ECHCG); test: as above; settings: 312 h, rate 250 g/ha, evaluated after 13 days, scale 0-100, read-out: Post-emergence activity ECHCG (100=total damage to plant; 0=no damage to plant)
How it was run: as §2

Setaria faberi (SETFA) [7] = test: as above; settings: rate 250 g/ha, evaluated after 13 days, scale 0-100
How it was run: as §2

[8] = test system: Alopecurus myosuroides (ALOMY); test: as above; settings: 312 h, rate 250 g/ha, evaluated after 13 days, scale 0-100, read-out: Post-emergence activity ALOMY (100=total damage to plant; 0=no damage to plant)
How it was run: as §2

Lolium perenne (LOLPE) = test: Example A pre-emergence herbicidal activity, glasshouse pot test; settings: Rate 250 g/ha, evaluated 20 days later, 100=total damage to plant, 0=no damage to plant
Method: (§3) Seeds of a variety of test species were sown in standard soil in pots. After cultivation for one day (pre-emergence) or after 10 days cultivation (post-emergence) under controlled conditions in a glasshouse, the plants were sprayed with an aqueous spray solution derived from the formulation of the technical active ingredient of formula I in 0.6 ml acetone and 45 ml formulation solution containing 10.6% Emulsogen EL (Registry number 61791-12-6), 42.2% N-methylpyrrolidone, 42.2% dipropylene glycol monomethyl ether (Registry number 34590-94-8) and 0.2% X-77 (Registry number 11097-66-8). The test plants were then grown in a greenhouse under optimum conditions until, 15 days later for post-emergence and 20 days for pre-emergence, the test was evaluated (100=total damage to plant; 0=no damage to plant). The compound of Example 1-8-a-1 from WO99/48869 was also sprayed for comparison. Alopecurus myosuroides (ALOMY), Avena fatua (AVEFA), Lolium perenne (LOLPE), Setaria faberi (SETFA), Digitaria sanguinalis (DIGSA), Echinochloa crus-galli (ECHCG) and Sorghum bicolor (SORVU) Pre-Emergence Activity

Avena fatua (AVEFA) [9] = test: as above; settings: Rate 250 g/ha, evaluated 20 days later, 100=total damage to plant, 0=no damage to plant
Method: as §3

[10] = test system: Echinochloa crus-galli (ECHCG); test: as above; settings: Rate 250 g/ha, evaluated 20 days later, 100=total damage to plant, 0=no damage to plant
Method: as §3

Setaria faberi (SETFA) [11] = test: as above; settings: Rate 250 g/ha, evaluated 20 days later, 100=total damage to plant, 0=no damage to plant
Method: as §3

[12] = test system: Alopecurus myosuroides (ALOMY); test: as above; settings: Rate 250 g/ha, evaluated 20 days later, 100=total damage to plant, 0=no damage to plant
Method: as §3

Sorghum bicolor (SORVU) = test: Example A post-emergence herbicidal activity, glasshouse pot test; settings: Rate 15 g/ha, evaluated 15 days later, 100=total damage to plant, 0=no damage to plant
Method: as §3, with “Post-Emergence” for “Pre-Emergence”

Avena fatua (AVEFA) [13] = test: as above; settings: Rate 15 g/ha, evaluated 15 days later, 100=total damage to plant, 0=no damage to plant
Method: as §3, with “Post-Emergence” for “Pre-Emergence”

[14] = test system: Echinochloa crus-galli (ECHCG); test: as above; settings: Rate 15 g/ha, evaluated 15 days later, 100=total damage to plant, 0=no damage to plant
Method: as §3, with “Post-Emergence” for “Pre-Emergence”

Setaria faberi (SETFA) [15] = test: as above; settings: Rate 15 g/ha, evaluated 15 days later, 100=total damage to plant, 0=no damage to plant
Method: as §3, with “Post-Emergence” for “Pre-Emergence”

[16] = test system: Digitaria sanguinalis (DIGSA); test: as above; settings: Rate 15 g/ha, evaluated 15 days later, 100=total damage to plant, 0=no damage to plant
Method: as §3, with “Post-Emergence” for “Pre-Emergence”

[17] = test system: Alopecurus myosuroides (ALOMY); test: as above; settings: Rate 15 g/ha, evaluated 15 days later, 100=total damage to plant, 0=no damage to plant
Method: as §3, with “Post-Emergence” for “Pre-Emergence”

[18] = test system: Digitaria sanguinalis (DIGSA); test: Example A pre-emergence herbicidal activity, glasshouse pot test; settings: Rate 250 g/ha, evaluated 20 days later, 100=total damage to plant, 0=no damage to plant
Method: as §3

In the case of `CCc1ccc(-c2ccc(Cl)cc2)cc1C1=C(O)C(C)(C)CCC1=O` [Compound T1, 2-(4′-chloro-4-ethylbiphen-3-yl)-4,4-dimethyl-1,3-cyclohexanedione], the pest or weed control at 250 g/ha (Avena fatua (AVEFA) [1]) is reported as 0%, the pest or weed control at 250 g/ha [2] is reported as 100% and the “Pre-emergence activity SETFA (100=total damage to plant; 0=no damage to plant)” value (Setaria faberi (SETFA) [3]) is reported as 100. For the same compound, the pest or weed control at 250 g/ha [4] was 50%, the pest or weed control at 250 g/ha (Avena fatua (AVEFA) [5]) was 40% and the pest or weed control at 250 g/ha [6] was 100%. The “Post-emergence activity SETFA (100=total damage to plant; 0=no damage to plant)” value (Setaria faberi (SETFA) [7]) was 100, the pest or weed control at 250 g/ha [8] was 90% and the “Pre-Emergence Activity LOLPE (damage to plant)” value (shortened to “Pre-Emergence Activity LOLPE”) (Lolium perenne (LOLPE)) was 90. For the same compound, the “Pre-Emergence Activity AVEFA (damage to plant)” value (shortened to “Pre-Emergence Activity AVEFA”) (Avena fatua (AVEFA) [9]) was 70, the “Pre-Emergence Activity ECHCG (damage to plant)” value (shortened to “Pre-Emergence Activity ECHCG”) [10] was 90 and the “Pre-Emergence Activity SETFA (damage to plant)” value (Setaria faberi (SETFA) [11]) was 100. The “Pre-Emergence Activity ALOMY (damage to plant)” value (shortened to “Pre-Emergence Activity ALOMY”) [12] was 60, the “Post-Emergence Activity SORVU (damage to plant)” value (shortened to “Post-Emergence Activity SORVU”) (Sorghum bicolor (SORVU)) was 50 and the “Post-Emergence Activity AVEFA (damage to plant)” value (“Post-Emergence Activity AVEFA” below) (Avena fatua (AVEFA) [13]) was 10. The “Post-Emergence Activity ECHCG (damage to plant)” value (from here on “Post-Emergence Activity ECHCG”) [14] was 70, the “Post-Emergence Activity SETFA (damage to plant)” value (Setaria faberi (SETFA) [15]) was 90 and the “Post-Emergence Activity DIGSA (damage to plant)” value (shortened to “Post-Emergence Activity DIGSA”) [16] was 80. The “Post-Emergence Activity ALOMY (damage to plant)” value (“Post-Emergence Activity ALOMY” below) [17] was 0.

With `CCc1ccc(-c2ccc(Cl)cc2)cc1C1=C(O)CCCC1=O` [Compound T2] the pest or weed control at 250 g/ha (Avena fatua (AVEFA) [1]) was 40%, the pest or weed control at 250 g/ha [2] was 100% and the “Pre-emergence activity SETFA (100=total damage to plant; 0=no damage to plant)” value (Setaria faberi (SETFA) [3]) was 100. For the same compound, the pest or weed control at 250 g/ha [4] was 40%, the pest or weed control at 250 g/ha (Avena fatua (AVEFA) [5]) was 80% and the pest or weed control at 250 g/ha [6] was 100%. For the same compound, the “Post-emergence activity SETFA (100=total damage to plant; 0=no damage to plant)” value (Setaria faberi (SETFA) [7]) was 100, the pest or weed control at 250 g/ha [8] was 90% and the “Pre-Emergence Activity LOLPE” value (Lolium perenne (LOLPE)) was 70. For the same compound, the “Pre-Emergence Activity AVEFA” value (Avena fatua (AVEFA) [9]) was 70, the “Pre-Emergence Activity ECHCG” value [10] was 100 and the “Pre-Emergence Activity SETFA (damage to plant)” value (Setaria faberi (SETFA) [11]) was 80. The “Pre-Emergence Activity DIGSA (damage to plant)” value (from here on “Pre-Emergence Activity DIGSA”) [18] was 80, the “Pre-Emergence Activity ALOMY” value [12] was 60 and the “Post-Emergence Activity SORVU” value (Sorghum bicolor (SORVU)) was 70. For the same compound, the “Post-Emergence Activity AVEFA” value (Avena fatua (AVEFA) [13]) was 0, the “Post-Emergence Activity ECHCG” value [14] was 90 and the “Post-Emergence Activity SETFA (damage to plant)” value (Setaria faberi (SETFA) [15]) was 80. For the same compound, the “Post-Emergence Activity DIGSA” value [16] was 80 and the “Post-Emergence Activity ALOMY” value [17] was 0.

With `CCc1ccc(-c2ccc(Cl)cc2)cc1C1=C(O)CC(C)(C)CC1=O` [Compound T3] the pest or weed control at 250 g/ha (Avena fatua (AVEFA) [1]) was 20%, the pest or weed control at 250 g/ha [2] was 100% and the “Pre-emergence activity SETFA (100=total damage to plant; 0=no damage to plant)” value (Setaria faberi (SETFA) [3]) was 100. For the same compound, the pest or weed control at 250 g/ha [4] was 60%, the pest or weed control at 250 g/ha (Avena fatua (AVEFA) [5]) was 20% and the pest or weed control at 250 g/ha [6] was 100%. For the same compound, the “Post-emergence activity SETFA (100=total damage to plant; 0=no damage to plant)” value (Setaria faberi (SETFA) [7]) was 100, the pest or weed control at 250 g/ha [8] was 100% and the “Pre-Emergence Activity LOLPE” value (Lolium perenne (LOLPE)) was 100. For the same compound, the “Pre-Emergence Activity AVEFA” value (Avena fatua (AVEFA) [9]) was 50, the “Pre-Emergence Activity ECHCG” value [10] was 100 and the “Pre-Emergence Activity SETFA (damage to plant)” value (Setaria faberi (SETFA) [11]) was 80. The “Pre-Emergence Activity DIGSA” value [18] was 100, the “Pre-Emergence Activity ALOMY” value [12] was 90 and the “Post-Emergence Activity SORVU” value (Sorghum bicolor (SORVU)) was 70. For the same compound, the “Post-Emergence Activity AVEFA” value (Avena fatua (AVEFA) [13]) was 20, the “Post-Emergence Activity ECHCG” value [14] was 70 and the “Post-Emergence Activity SETFA (damage to plant)” value (Setaria faberi (SETFA) [15]) was 70. The “Post-Emergence Activity DIGSA” value [16] was 70 and the “Post-Emergence Activity ALOMY” value [17] was 50.

`Cc1ccc(-c2ccc(Cl)cc2)cc1C1=C(O)C(C)(C)CCC1=O` [Example 1-8-a-1 from WO99/48869, reference compound] was tested, and the “Pre-Emergence Activity LOLPE” value (Lolium perenne (LOLPE)) was 20, the “Pre-Emergence Activity AVEFA” value (Avena fatua (AVEFA) [9]) was 0 and the “Pre-Emergence Activity ECHCG” value [10] was 90. The “Pre-Emergence Activity SETFA (damage to plant)” value (Setaria faberi (SETFA) [11]) was 30, the “Pre-Emergence Activity DIGSA” value [18] was 70 and the “Pre-Emergence Activity ALOMY” value [12] was 20. The “Post-Emergence Activity SORVU” value (Sorghum bicolor (SORVU)) was 0, the “Post-Emergence Activity AVEFA” value (Avena fatua (AVEFA) [13]) was 0 and the “Post-Emergence Activity ECHCG” value [14] was 70. For the same compound, the “Post-Emergence Activity SETFA (damage to plant)” value (Setaria faberi (SETFA) [15]) was 20, the “Post-Emergence Activity DIGSA” value [16] was 20 and the “Post-Emergence Activity ALOMY” value [17] was 0.
